Reference: patent US9505739B2, “Spiropyrrolidine beta-secretase inhibitors for the treatment of alzheimer's disease” (Merck Sharp & Dohme Corp., priority 2009, dated 2016)

Molecular target: BACE 1 (Homo sapiens (Human), UniProt P56817)
Assay: ECL assay: homogeneous end point electrochemiluminescence assay of beta-secretase inhibition with biotinylated BACE substrate
Assay type: biochemical
Settings: soluble human BACE 1, pH 6.5, rt
Procedure: Enzyme inhibition is determined as follows.
ECL Assay: A homogeneous end point electrochemiluminescence (ECL) assay is performed using a biotinylated BACE substrate. The Km of the substrate is approximated at 50 μM. A typical reaction contains approximately 0.6 nM enzyme, 0.25 μM of the substrate, and buffer (50 mM Pipes, pH 6.5, 0.1 mg/ml BSA, 0.2% CHAPS, 15 mM EDTA and 1 mM deferoxamine) in a total reaction volume of 100 μl. The reaction proceeds for 1-2 hrs and is then stopped by the addition of 150 μL of a quench cocktail solution (25 μl M Tris-HCl, pH 8.0, 50 μl INC buffer (2% BSA, 0.2% Tween-20 and 0.05% sodium azide diluted in Phosphate buffered saline (PBS) plus 75 μL PBS), containing Streptavidin coated magnetic beads and ruthenylated antibody which specifically recognizes the C-terminal residue of the product. The samples are subjected to M-384 (Igen Inc., Gaithersburg, Md.) analysis. Under these conditions, less than 10% of substrate is processed by BACE 1. The enzyme used in these studies is soluble (transmembrane domain and cytoplasmic extension excluded) human protein produced in a baculovirus expression system. To measure the inhibitory potency for compounds, 10 concentrations of inhibitors are prepared starting from 200 μM with three fold series dilution. Solutions of the inhibitor in DMSO are included in the reaction mixture (final DMSO concentration is 10%). […]

Sequence of BACE 1 (P56817 46-457): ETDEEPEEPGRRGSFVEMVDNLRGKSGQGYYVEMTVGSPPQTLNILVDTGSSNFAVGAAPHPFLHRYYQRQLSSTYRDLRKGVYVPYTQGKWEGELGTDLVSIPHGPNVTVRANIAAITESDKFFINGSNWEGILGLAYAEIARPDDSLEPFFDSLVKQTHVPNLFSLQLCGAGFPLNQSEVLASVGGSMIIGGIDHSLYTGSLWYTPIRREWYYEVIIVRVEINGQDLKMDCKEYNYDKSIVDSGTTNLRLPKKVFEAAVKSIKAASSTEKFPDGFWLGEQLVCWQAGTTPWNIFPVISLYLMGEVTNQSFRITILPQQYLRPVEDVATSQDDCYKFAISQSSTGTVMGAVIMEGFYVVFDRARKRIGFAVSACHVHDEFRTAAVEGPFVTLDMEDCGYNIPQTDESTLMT

`Cc1cccc(C2CC(c3ccccc3)CCN2C(=O)[C@@H]2CNC[C@]23CCCc2nc(Cl)ccc23)c1` (stereo partly drawn) [Example 100, [(3R,4S)-2′-chloro-7′,8′-dihydro-6′H-spiro [pyrrolidine-3,5′-quinolin]-4-yl][2-(3-methylphenyl)-4-phenylpiperidin-1-yl] methanone] gave an IC50 of 450 nM.
